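Dose response: 5 concentrations. Exposure: 48 h. Format: 96-well plates. Endpoint: linear interpolation; highest concentration if not reached. GI50 marks 50% less growth. Definition used: TGI = concentration required for complete inhibition of growth.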
How the values were obtained:
Test in all cases: inhibition of tumour cell growth, NCI panel, 48 h
UO-31 renal = tested on: UO-31 renal
U251 CNS = tested on: U251 CNS
OVCAR-4 ovarian = tested on: OVCAR-4 ovarian
SK-MEL-5 melanoma = tested on: SK-MEL-5 melanoma
MOLT-4 leukemia = tested on: MOLT-4 leukemia
TK-10 renal = tested on: TK-10 renal
A498 renal = tested on: A498 renal
SNB-19 CNS = tested on: SNB-19 CNS
HL-60(TB) leukemia = tested on: HL-60(TB) leukemia
ACHN renal = tested on: ACHN renal

For `O=C1OC(c2ccccc2)C2CC3CC4(CCC3CN12)OCCO4` (centres undefined), the TGI (UO-31 renal) was > 100 µM, the TGI (U251 CNS) was > 100 µM and the TGI (OVCAR-4 ovarian) was > 100 µM. For the same molecule, the TGI (SK-MEL-5 melanoma) was > 100 µM, the TGI (MOLT-4 leukemia) was > 100 µM and the TGI (TK-10 renal) was > 100 µM. For the same molecule, the TGI (A498 renal) was > 100 µM, the TGI (SNB-19 CNS) was > 100 µM and the TGI (HL-60(TB) leukemia) was > 100 µM.

With `COc1ccc(-c2cn(-c3ccc(Cl)cc3)c(=S)[nH]2)cc1OC` the GI50 (UO-31 renal) was 39.6 µM, the TGI (UO-31 renal) was > 100 µM and the GI50 (ACHN renal) was 9.53 µM. The TGI (ACHN renal) was > 100 µM, the GI50 (U251 CNS) was 12.3 µM and the TGI (U251 CNS) was > 100 µM. For the same molecule, the GI50 (OVCAR-4 ovarian) was 20.8 µM, the TGI (OVCAR-4 ovarian) was > 100 µM and the GI50 (SK-MEL-5 melanoma) was 2.92 µM. The TGI (SK-MEL-5 melanoma) was > 100 µM, the GI50 (MOLT-4 leukemia) was > 100 µM and the TGI (MOLT-4 leukemia) was > 100 µM. The GI50 (TK-10 renal) was 12.1 µM, the TGI (TK-10 renal) was > 100 µM and the GI50 (A498 renal) was 3.63 µM. For the same molecule, the TGI (A498 renal) was 53.9 µM, the GI50 (HL-60(TB) leukemia) was 3.34 µM and the TGI (HL-60(TB) leukemia) was 9.32 µM.

With `O=C(c1ccccc1)c1ccc(Cl)c([N+](=O)[O-])c1` the GI50 (UO-31 renal) was 2.25 µM, the TGI (UO-31 renal) was 5.34 µM and the GI50 (ACHN renal) was 7.14 µM. It also gave a TGI (ACHN renal) of 21.3 µM, a GI50 (U251 CNS) of 7.35 µM and a TGI (U251 CNS) of 20.3 µM. The GI50 (OVCAR-4 ovarian) was 1.73 µM, the TGI (OVCAR-4 ovarian) was 3.13 µM and the GI50 (SK-MEL-5 melanoma) was 14.7 µM. It also gave a TGI (SK-MEL-5 melanoma) of 28.3 µM, a GI50 (MOLT-4 leukemia) of 4.17 µM and a TGI (MOLT-4 leukemia) of 22.3 µM. It also gave a GI50 (A498 renal) of 16 µM, a TGI (A498 renal) of 30.9 µM and a GI50 (SNB-19 CNS) of 16 µM. The TGI (SNB-19 CNS) was 30.2 µM, the GI50 (HL-60(TB) leukemia) was 2.56 µM and the TGI (HL-60(TB) leukemia) was 6.58 µM.

`CCOC(=O)NC(=O)c1cn(CCCCCOC(=O)NCCCCCCNC(=O)OCCCCCn2cc(C(=O)NC(=O)OCC)c(=O)[nH]c2=O)c(=O)[nH]c1=O` was tested, and the TGI (UO-31 renal) was > 100 µM, the TGI (ACHN renal) was > 100 µM and the TGI (U251 CNS) was > 100 µM. The TGI (OVCAR-4 ovarian) was > 100 µM, the TGI (SK-MEL-5 melanoma) was > 100 µM and the TGI (MOLT-4 leukemia) was > 100 µM. For the same molecule, the TGI (A498 renal) was > 100 µM, the TGI (SNB-19 CNS) was > 100 µM and the TGI (HL-60(TB) leukemia) was > 100 µM.

With `COC1OCC(OS(=O)(=O)c2ccc(C)cc2)C(OC(=O)c2ccccc2)C1OC(=O)c1ccccc1` (centres undefined) the GI50 (UO-31 renal) was > 100 µM, the TGI (UO-31 renal) was > 100 µM and the GI50 (ACHN renal) was 8.83 µM. For the same molecule, the TGI (ACHN renal) was > 100 µM, the GI50 (U251 CNS) was 4.72 µM and the TGI (U251 CNS) was > 100 µM. For the same molecule, the GI50 (OVCAR-4 ovarian) was 9.24 µM, the TGI (OVCAR-4 ovarian) was > 100 µM and the GI50 (SK-MEL-5 melanoma) was 4.32 µM. The TGI (SK-MEL-5 melanoma) was > 100 µM, the GI50 (TK-10 renal) was > 100 µM and the TGI (TK-10 renal) was > 100 µM. The GI50 (A498 renal) was 4.53 µM, the TGI (A498 renal) was 90.9 µM and the GI50 (SNB-19 CNS) was 9.97 µM. For the same molecule, the TGI (SNB-19 CNS) was > 100 µM, the GI50 (HL-60(TB) leukemia) was 4.08 µM and the TGI (HL-60(TB) leukemia) was > 100 µM.

For `CSC(=S)N/N=C/c1ccccc1`, the TGI (UO-31 renal) was > 100 µM, the TGI (ACHN renal) was > 100 µM and the TGI (U251 CNS) was > 100 µM. The TGI (OVCAR-4 ovarian) was 98.5 µM, the TGI (SK-MEL-5 melanoma) was > 100 µM and the TGI (TK-10 renal) was > 100 µM. The TGI (A498 renal) was > 100 µM, the TGI (SNB-19 CNS) was > 100 µM and the TGI (HL-60(TB) leukemia) was > 100 µM.

In the case of `O=c1c2cc(Br)ccc2[nH]c(=S)n1-c1ccc(Br)cc1`, the TGI (UO-31 renal) is reported as > 100 µM, the TGI (ACHN renal) is reported as > 100 µM and the TGI (U251 CNS) is reported as > 100 µM. For the same molecule, the TGI (OVCAR-4 ovarian) was > 100 µM, the TGI (MOLT-4 leukemia) was > 100 µM and the TGI (TK-10 renal) was > 100 µM. The TGI (A498 renal) was > 100 µM, the TGI (SNB-19 CNS) was > 100 µM and the TGI (HL-60(TB) leukemia) was > 100 µM.

`COc1cc(C2c3cc4c(cc3[C@H](NC(=O)c3cccs3)C3COC(=O)[C@H]23)OCO4)cc(OC)c1OC` (some centres undefined) was tested, and the TGI (UO-31 renal) was > 44.3 µM, the TGI (ACHN renal) was 18.7 µM and the TGI (U251 CNS) was 0.865 µM. The TGI (SK-MEL-5 melanoma) was 0.708 µM, the TGI (MOLT-4 leukemia) was 24.5 µM and the TGI (TK-10 renal) was > 100 µM. For the same molecule, the TGI (A498 renal) was 0.0481 µM, the TGI (SNB-19 CNS) was > 100 µM and the TGI (HL-60(TB) leukemia) was < 0.0251 µM.

In the case of `CN(C)CCCNC(=O)c1cc(NC(=O)CCNC(=O)c2ccc3c(c2)C(=O)c2ccccc2C3=O)cn1C`, the GI50 (UO-31 renal) is reported as > 100 µM, the TGI (UO-31 renal) is reported as > 100 µM and the GI50 (U251 CNS) is reported as 27.1 µM. The TGI (U251 CNS) was > 100 µM, the GI50 (SK-MEL-5 melanoma) was > 100 µM and the TGI (SK-MEL-5 melanoma) was > 100 µM. For the same molecule, the GI50 (MOLT-4 leukemia) was 37.4 µM, the TGI (MOLT-4 leukemia) was > 100 µM and the GI50 (TK-10 renal) was > 100 µM. The TGI (TK-10 renal) was > 100 µM, the GI50 (A498 renal) was > 100 µM and the TGI (A498 renal) was > 100 µM. The GI50 (SNB-19 CNS) was > 100 µM, the TGI (SNB-19 CNS) was > 100 µM and the GI50 (HL-60(TB) leukemia) was > 100 µM. For the same molecule, the TGI (HL-60(TB) leukemia) was > 100 µM.

`N#Cc1ccc(/C=N\N2C(=O)c3ccccc3C2=O)cc1` was tested, and the TGI (UO-31 renal) was > 100 µM, the TGI (ACHN renal) was > 100 µM and the TGI (OVCAR-4 ovarian) was > 100 µM. The TGI (SK-MEL-5 melanoma) was > 100 µM, the TGI (MOLT-4 leukemia) was > 100 µM and the TGI (TK-10 renal) was > 100 µM. The TGI (A498 renal) was > 100 µM, the TGI (SNB-19 CNS) was > 100 µM and the TGI (HL-60(TB) leukemia) was > 100 µM.

With `CCCCCCCCCCCCOC1C(CNC(=O)C2OC3OC(C)(C)OC3C2NC(=O)CN2CCN(c3ccccn3)CC2)OC2OC(C)(C)OC21` (centres undefined) the GI50 (UO-31 renal) was 1.42 µM, the TGI (UO-31 renal) was 2.72 µM and the GI50 (ACHN renal) was 1.77 µM. The TGI (ACHN renal) was 3.21 µM, the GI50 (U251 CNS) was 1.86 µM and the TGI (U251 CNS) was 3.46 µM. It also gave a GI50 (OVCAR-4 ovarian) of 2.52 µM, a TGI (OVCAR-4 ovarian) of 7.7 µM and a GI50 (SK-MEL-5 melanoma) of 1.7 µM. The TGI (SK-MEL-5 melanoma) was 3.09 µM, the GI50 (MOLT-4 leukemia) was 1.86 µM and the TGI (MOLT-4 leukemia) was 4.45 µM. For the same molecule, the GI50 (TK-10 renal) was 1.76 µM, the TGI (TK-10 renal) was 3.27 µM and the GI50 (A498 renal) was 1.6 µM. It also gave a TGI (A498 renal) of 2.97 µM, a GI50 (SNB-19 CNS) of 2.96 µM and a TGI (SNB-19 CNS) of 7.99 µM.

In the case of `Nc1nc(=O)n(C2CC(O)C(O)C(CO)O2)cc1F` (centres undefined), the TGI (UO-31 renal) is reported as > 100 µM, the TGI (ACHN renal) is reported as > 100 µM and the TGI (U251 CNS) is reported as > 100 µM. The TGI (OVCAR-4 ovarian) was > 100 µM, the TGI (MOLT-4 leukemia) was > 100 µM and the TGI (TK-10 renal) was > 100 µM. The TGI (A498 renal) was > 100 µM, the TGI (SNB-19 CNS) was > 100 µM and the TGI (HL-60(TB) leukemia) was > 100 µM.

`CC(C)(C)C(=O)OCOP(=O)(OCOC(=O)C(C)(C)C)C1CCCN(OC(=O)c2ccccc2)C1=O` (centres undefined) was tested, and the GI50 (UO-31 renal) was 0.297 µM, the TGI (UO-31 renal) was 2.36 µM and the GI50 (ACHN renal) was 0.666 µM. It also gave a TGI (ACHN renal) of 11.7 µM, a GI50 (U251 CNS) of 0.919 µM and a TGI (U251 CNS) of 10.5 µM. For the same molecule, the GI50 (OVCAR-4 ovarian) was 3.56 µM, the TGI (OVCAR-4 ovarian) was > 100 µM and the GI50 (SK-MEL-5 melanoma) was 0.983 µM. The TGI (SK-MEL-5 melanoma) was 3.28 µM, the GI50 (MOLT-4 leukemia) was 1.02 µM and the TGI (MOLT-4 leukemia) was 8.45 µM. For the same molecule, the GI50 (TK-10 renal) was 2.16 µM, the TGI (TK-10 renal) was 23.2 µM and the GI50 (A498 renal) was 0.283 µM. The TGI (A498 renal) was 0.832 µM, the GI50 (SNB-19 CNS) was 1.51 µM and the TGI (SNB-19 CNS) was 17 µM.
